Data on 1 compound can be found in patent publication US20250057989A1, “TMEM-MCD IN THE MINIMALLY INVASIVE ASSESSMENT OF THE ACTIVITY STATUS OF TMEM IN ITS DISSEMINATION OF TUMOR CELLS” (Albert Einstein College of Medicine, priority 2018, published 2025).

For assay [1], the system named is TMEM. As to conditions: mice with breast cancer, oral administration; cited from earlier work.
The subject of another assay is tumor cells. The conditions noted are these: mouse models of breast cancer; cited from earlier work.
In the next assay the test system is TMEM function (CTCs). Briefly: Clinical trial NCT02824575: oral rebastinib to inhibit TMEM function (CTCs) in breast cancer patients. It is filed as in vivo, human.
The test system of assay [2] is TMEM. Briefly: TMEM-MRI test (Uth) in PyMT mouse model, control vs rebastinib. The assay is classed as in vivo. The conditions noted are these: mice, FIGS. 2-3. The source says: FIGS. 3A-3E. Evaluation of TMEM-MRI assay sensitivity and its values as a companion diagnostic is illustrated by using TMEM-MRI to detect the effect of the commercially available TMEM inhibitor Rebastinib in PyMT mouse model. FIG. 3A depicts a schematic illustration and cohort composition of the MMTV-PyMT Control vs Rebastinib (Ctrl-Reb) transplantation model. FIG. 3B is a chart depicting upper threshold ratio (Uth) of Ctrl-and rebastinib (Reb)-treated tumors. FIG. 3C depicts extravascular dextran assay, showing TMEM association with leaky (lower row), but no association of TMEM with non-leaky (upper row) blood vessel. FIG. 3D is a chart depicting the comparison between extravascular dextran leakiness between Ctrl and Reb-treated tumors. FIG. 3E is a chart depicting circulating tumor cells in mice treated with rebastinib or vehicle control. […]
A new assay for TMEM activity has been developed and validated. […] Using intravenously injected Gd-DTPA, in a dynamic and quantitative assessment allowing assessment of the change in tissue permeability induced by TMEM, with adequate temporal and spatial resolution, the permeability change associated with the TMEM occurrence can be measured with high spatial resolution. […] TMEM facilitated increase in tissue diffusion, measured using the apparent diffusion constant or using Diffusion Tensor Imaging (DTI) may also be developed to detect TMEM. […]

The subject of a further assay is circulating tumor cells. The conditions noted are these: mice with breast cancer, chemotherapy-induced, oral administration; cited from earlier work.

Entries after “also recorded” stand apart in the source; their conditions may differ.

As for `CNC(=O)c1cc(Oc2ccc(NC(=O)Nc3cc(C(C)(C)C)nn3-c3ccc4ncccc4c3)c(F)c2)ccn1` [rebastinib, 4-[4-[(5-tert-butyl-2-quinolin-6-ylpyrazol-3-yl)carbamoylamino]-3-fluorophenoxy]-N-methylpyridine-2-carboxamide], in the assay with TMEM [1], the “chemotherapy-induced TMEM activity (multiphoton imaging of the burst)” value is “inhibited”. In addition, in the assay with tumor cells, the “dissemination of tumor cells” value is recorded as “prevents dissemination of tumor cells”. Besides, the “tumor cell dissemination (CTCs) in patients” value in the assay with TMEM function (CTCs) was “prevents dissemination of tumor cells; also recorded: most patients achieved complete inhibition of tumor cell dissemination”. Besides, in the assay with TMEM [2], the “TMEM activity detected by TMEM-MRI test” value was “inhibition of TMEM activity”. Moreover, the “cancer cell dissemination (circulating tumor cells in the blood, CTCs)” value with circulating tumor cells is listed as “inhibited”.
